91 compounds from PubChem BioAssay AID2823 (Broad Institute, 2010) can be followed below.

Calls of active or inactive are those of the source. The rule behind the calls is not given here. Some results are limits rather than exact numbers.

The assay deals with RanGTP-importin-beta complex (human Ran / KPNB1). As to the kind of experiment: Ran–importin-beta interaction inhibitors, confirmation, biochemical, FRET, CFP/YFP, cell-free homogeneous (AID 2823). Particulars: CFP-Ran/YFP-importin-beta FRET ratio.
In the case of `C=CCn1c(=O)c(C(=O)Nc2ccc(C)cc2)c(O)c2ccccc21`, the IC50 is > 50 µM (inactive).

Regarding `Cc1ccc(Cn2ccc(NC(=O)c3noc4c3CCc3ccccc3-4)n2)cc1`, the IC50 was > 50 µM (inactive).

`OCCN1CCN(c2nc(-c3ccccc3)c3cc(Cl)ccc3n2)CC1`: the IC50 was 22.2 µM.

Consider `COc1cc(C(=O)NCCCNc2nc3cc(C)cc(C)c3cc2C#N)cc(OC)c1OC`, for which the IC50 was 29.8 µM.

Regarding `CCc1ccc(N2C(=O)NC(=O)/C(=C\c3cc(C)n(-c4cc(C(=O)O)cc(C(=O)O)c4)c3C)C2=O)cc1`, the IC50 was > 50 µM (inactive).

Turning to `COc1cc(NC(=O)C2CC2)c(OC)cc1NC(=O)c1ccco1`, the IC50 is > 50 µM (inactive).

Consider `Cc1cc(NC(=O)c2sc3ccccc3c2O)no1`, for which the IC50 was 26.3 µM.

Turning to `N#Cc1c(N)nc2c(c1-c1ccccc1)CCC2`, the IC50 is 14.3 µM.

As to `Cc1cccc(-n2c(O)c(/C=C/C=Nc3ccccc3)c(=O)[nH]c2=O)c1`, the IC50 was 3.6 µM.

Regarding `CCOC(=O)C1=C(C)NC2=C(C(=O)C(C(=O)OCC)C(c3ccc(OC)cc3)C2)C1c1ccccn1` (stereo unspecified), the IC50 was 28.4 µM.

`CSc1nsc2nc(=O)c(/C=C3\C=Nc4ccccc43)c(N)n12`: the IC50 was 22.6 µM.

Take `CCn1c(=O)cc(N2CCC3(CC2)OCCO3)[nH]c1=O`: the IC50 was > 50 µM (inactive).

As to `COc1ccc(C(=O)Nc2sc3c(c2C#N)CCN(C(C)=O)C3)cc1`, the IC50 is > 50 µM (inactive).

On to `O=C(O)c1cccc(Nc2c3ccccc3nc3ccccc23)c1`, for which the IC50 was > 50 µM (inactive).

On to `CCn1nc(NC(=O)c2ccccn2)c2cc3cccc(C)c3nc21`, for which the IC50 is 2.68 µM.

In the case of `CCc1c(C)c2cc(Cl)c(O)c(CN3CCCCC3)c2oc1=O`, the IC50 was 22.9 µM.

On to `CNC(=O)c1cc2c(ccc3ccccc32)oc1=N`, for which the IC50 was 5.26 µM.

`CCN1CCc2c(sc(NC(=O)C3CCCCC3)c2C(=O)OC)C1`: the IC50 is > 50 µM (inactive).

On to `O=C(c1ccco1)c1cc2c(ccc3ccccc32)oc1=O`, for which the IC50 is 25 µM.

In the case of `Cc1ccc(S(=O)(=O)N(C)Cc2ccc(C(=O)N/N=C3\CC(=O)CC(C)(C)C3)cc2)cc1`, the IC50 was > 50 µM (inactive).

Consider `N#Cc1ccccc1NC(=O)C1CC(=O)N(c2ccc3c4c(cccc24)CC3)C1` (stereo unspecified), for which the IC50 is > 50 µM (inactive).

With `O=C1NC(=O)N(Cc2ccccc2)C(=O)/C1=C\N1CCCc2ccccc21`, the IC50 is > 50 µM (inactive).

As for `Cc1c(Cl)c([N+](=O)[O-])nn1CCCC(=O)Nc1sc2c(c1C(N)=O)CCC(C)C2` (stereo unspecified), the IC50 is > 50 µM (inactive).

As to `CC1=C(C(=O)OCC2CCCO2)C(c2ccccc2OC(C)C)C2=C(CC(c3ccco3)CC2=O)N1` (stereo unspecified), the IC50 is 8.41 µM.

On to `N=c1c(S(=O)(=O)c2ccc(Br)cc2)cc2c(=O)n3ccccc3nc2n1C1CCCCC1`, for which the IC50 was > 50 µM (inactive).

Consider `C/C(=N\NC(=S)NCc1ccccc1)c1cccc(Br)c1`, for which the IC50 is > 50 µM (inactive).

On to `CCc1ccc(S(=O)(=O)Nc2ccc(-c3nc4cccnc4s3)cc2)s1`, for which the IC50 was > 50 µM (inactive).

Consider `O=C(O)COc1ccc(F)cc1Br`, for which the IC50 is > 50 µM (inactive).

As for `Cc1cc(Cl)c(S(=O)(=O)N2CCCC2)cc1OCC(=O)NC1CCCCC1`, the IC50 is > 50 µM (inactive).

For `CCn1c(=O)cc(N2CCCCC2)[nH]c1=O`, the IC50 was > 50 µM (inactive).

For `COc1ccccc1Nc1c2ccccc2nc2ccccc12`, the IC50 is > 50 µM (inactive).

For `CN(C)C=NC(=O)c1cc(C(=O)c2ccc(C(C)(C)C)cc2)c[nH]1`, the IC50 is > 50 µM (inactive).

Take `COc1ccc(N2C(=O)N3[C@H](c4ccc(Br)cc4)[C@@H]4C(=O)N(C(C)(C)C)C(=O)[C@@H]4[C@]3(Cc3ccccc3)C2=O)cc1`: the IC50 was > 50 µM (inactive).

`Cc1ccc(C2C(C#N)=C(N)N(c3cccnc3)C3=C2C(=O)CCC3)c(C)c1` (stereo unspecified): the IC50 is > 50 µM (inactive).

Take `Cc1nn(C)c(Oc2ccc(Cl)cc2)c1C(=O)O`: the IC50 was > 50 µM (inactive).

Regarding `C=CCOc1c(Br)cc(CNc2ccc(NC(=O)C(C)C)c(OC)c2)cc1OC`, the IC50 is > 50 µM (inactive).

Take `CC(c1nc2ccccc2n1Cc1ccccc1)N1CCCCC1` (stereo unspecified): the IC50 was > 50 µM (inactive).

On to `CC(C)c1ccc(CN2CCC(Oc3ccc(C(=O)N4CCCC4)cc3)CC2)cc1`, for which the IC50 is > 50 µM (inactive).

As for `CCNc1nnc(CSc2nc3ccccc3s2)s1`, the IC50 is > 50 µM (inactive).

Regarding `Cc1ccc(N=Cc2cc3c(cc2O)OC(N)=C(C#N)C3c2ccccc2)cc1` (stereo unspecified), the IC50 was > 50 µM (inactive).

For the compound `CCn1c(SCc2nc(-c3ccccc3)no2)nnc1-c1cccs1`, the IC50 is > 50 µM (inactive).

On to `COc1ccc(CCNc2nc3ccccc3n3nnnc23)cc1OC`, for which the IC50 is 40.1 µM.

Turning to `O=c1[nH]c(-[n+]2ccc3ccccc3c2)c(/C=N/N=C(\[O-])c2ccccc2)s1`, the IC50 is > 50 µM (inactive).

With `O=c1[nH]c(Nc2ccccc2Cl)cc2ccccc12`, the IC50 was > 50 µM (inactive).

Regarding `O=C(NNC(=S)NC(=O)c1ccccc1[N+](=O)[O-])c1ccccc1O`, the IC50 was > 50 µM (inactive).

With `CCc1cc2c(COC(=O)c3c(C)noc3C)cc(=O)oc2cc1O`, the IC50 is > 50 µM (inactive).

Turning to `NC(=O)c1ccccc1NC(=O)/C=C/c1ccc(Cl)cc1`, the IC50 is > 50 µM (inactive).

As to `Nc1nc(CSc2nc3ccccc3s2)nc(N2CCCCC2)n1`, the IC50 was > 50 µM (inactive).

Consider `O=C(NCC1CCN(Cc2ccccc2Cl)CC1)Nc1ccccc1F`, for which the IC50 was > 50 µM (inactive).

In the case of `CCN(CC)Cc1c(O)ccc2c(C)c(CC(=O)OC)c(=O)oc12`, the IC50 was 14 µM.

For the compound `c1ccc2sc(NC3=NCN(CCN4CCOCC4)CN3)nc2c1`, the IC50 is > 50 µM (inactive).

In the case of `CCCCc1cc(-c2n[nH]c(=S)o2)c2ccccc2n1`, the IC50 is > 50 µM (inactive).

Consider `COc1ccc(OC)c(N(CC(=O)O)S(=O)(=O)c2ccc(OC)c(OC)c2)c1`, for which the IC50 was > 50 µM (inactive).

For `COc1ccc(-c2csc3ncnc(N4CCN(c5ccc(OC)cc5)CC4)c23)cc1`, the IC50 is > 50 µM (inactive).

`Cc1c(CC(=O)O)c(=O)oc2c(C)c3occ(-c4ccc(F)cc4)c3cc12`: the IC50 was > 50 µM (inactive).

Regarding `CC1(C)CNC(=O)C=C(c2ccccc2)C1`, the IC50 was > 50 µM (inactive).

In the case of `CCN1CCc2c(sc(N)c2C#N)C1`, the IC50 is 16.5 µM.

For `Oc1c(C=Nc2ccccc2)sc2ccccc12`, the IC50 is 27.6 µM.

For `CC(C)Cc1nn2c(N)c(/C=C3\C=Nc4ccccc43)c(=O)nc2s1`, the IC50 was > 50 µM (inactive).

With `COc1ccc(C2c3c(ncn(Cc4ccco4)c3=N)Oc3ccc4ccccc4c32)cc1` (stereo unspecified), the IC50 is > 50 µM (inactive).

Regarding `CCN1C(=O)/C(=C2/Sc3ccccc3N2CCCS(=O)(=O)O)SC1=S`, the IC50 is 15.2 µM.

For `CC(=O)N1CN2CN(C(C)=O)CC(C(=O)c3ccccc3)(C2)C1`, the IC50 is > 50 µM (inactive).

For `CN(C)c1ccc(/C=C(\NC(=O)c2ccccc2)C(=O)NCc2ccncc2)cc1`, the IC50 is > 50 µM (inactive).

For the compound `COc1cc(NC(=O)Cn2ncc(Cl)c(Cl)c2=O)c(C)cc1[N+](=O)[O-]`, the IC50 is > 50 µM (inactive).

Regarding `Cc1cc(C)c(C2=CC(c3ccccc3)n3ncnc3N2)cc1C` (stereo unspecified), the IC50 was 38.5 µM.

Consider `CCCOC(=O)CSC1=C(C#N)C(c2ccccc2OCC)C(C#N)C(=O)N1` (stereo unspecified), for which the IC50 was > 50 µM (inactive).

For `COCc1cc(CN2CCN(C)CC2)c(O)c2ncccc12`, the IC50 was > 50 µM (inactive).

Consider `Cc1ccc(C)c(NC(=S)N(C)CCc2ccccn2)c1`, for which the IC50 is > 50 µM (inactive).

As to `N#C/C(=C/c1ccc(N2CCOCC2)o1)C(=O)N1CCOCC1`, the IC50 was 4.46 µM.

With `CN1CCN(c2ccc(S(=O)(=O)N3CCCCC3)cc2NC(=O)Cc2ccc(Cl)cc2)CC1`, the IC50 is > 50 µM (inactive).

Take `Cc1c(Br)c(=O)oc2c(Br)c(O)c(O)cc12`: the IC50 was 26.3 µM.

With `CCC(=O)N(CC(=O)Nc1sc(C)c(C)c1C(N)=O)C1CCCC1`, the IC50 is > 50 µM (inactive).

`N#Cc1c(N)n(CCNC(=O)c2ccc(Cl)cc2)c2nc3ccccc3nc12`: the half-maximal inhibitory concentration (IC50) is 7.21 µM.

As to `Cn1cnnc1SCC(=O)c1cc2ccccc2oc1=O`, the IC50 is > 50 µM (inactive).

For `CCOC(=O)c1[nH]c(C)c(C(=O)N(C)Cc2ccccc2)c1C`, the IC50 is > 50 µM (inactive).

Take `CC#CC(=O)N1CCC(C(=O)Nc2ccc(Oc3ccccc3)nc2)CC1`: the IC50 is > 50 µM (inactive).

On to `COc1cc2c(cc1OC)CN(Cc1ccccc1)CC2`, for which the IC50 is > 50 µM (inactive).

`Cc1c(S(=O)(=O)N2CCCC(C(=O)O)C2)cnn1C` (stereo unspecified): the IC50 was > 50 µM (inactive).

For `Oc1c(C(Nc2nc3ccccc3s2)c2ccco2)ccc2cccnc12` (stereo unspecified), the IC50 is > 50 µM (inactive).

As to `C=CCn1c(N)c(C(=O)OC(C)CC)c2nc3ccccc3nc21` (stereo unspecified), the IC50 is 19.8 µM.

Take `CCCc1cc(=O)oc2c(CN3CCN(C)CC3)c(O)c(Cl)cc12`: the IC50 is 28.4 µM.

With `Cc1ccc2nc(N3CCN(C(=O)c4cccs4)CC3)c(C#N)cc2c1`, the IC50 is 17.7 µM.

With `CC1(C)CC(=O)C=C(Nc2ccccc2O)C1`, the IC50 is > 50 µM (inactive).

In the case of `CC(=O)c1c(N2CCN(C)CC2)nc(=S)n(-c2cc(C)ccc2C)c1C`, the IC50 is > 50 µM (inactive).

Turning to `COc1cc2c(cc1OC)CN(Cc1cccs1)CC2`, the IC50 was > 50 µM (inactive).

As to `O=C(Oc1c(CN2CCOCC2)cc(Cl)c2cccnc12)c1ccccc1`, the IC50 was > 50 µM (inactive).

For `O=C(CSc1nnc(-c2ccc(F)cc2)o1)Nc1ccc(S(=O)(=O)N2CCCC2)cc1`, the IC50 is > 50 µM (inactive).

As for `CCOC(=O)CNc1ncc([N+](=O)[O-])cc1C#N`, the IC50 was > 50 µM (inactive).

For `Cc1ccc(C2=CC(c3ccccc3)n3ncnc3N2)c(C)c1` (stereo unspecified), the IC50 was > 50 µM (inactive).

Turning to `CCOC(=O)C/C(=N\Nc1ncnc2ccccc12)c1ccccc1`, the IC50 was > 50 µM (inactive).

For the compound `Cc1onc(-c2ccccc2)c1C(=O)Nc1cccc2nsnc12`, the IC50 is 33.3 µM.

Broadly, the IC50 is the concentration needed to halve the response being measured.
